According to BigSolDB 2.1:
Values joined by “and” are separate entries in the source; they are usually repeats but may differ in a detail not shown here. Equal values may be shown once.

CC(C)(C)C(O)/C(=C\c1ccc(Cl)cc1)n1cncn1 (stereo not drawn)
solubility (mole fraction)
Conditions | 278.15 K | 283.15 K | 288.15 K | 293.15 K | 298.15 K | 303.15 K | 308.15 K | 313.15 K | 318.15 K | 323.15 K
in ethyl acetate | 0.0106 | 0.0112 | 0.016 | 0.0167 | 0.0187 | 0.0201 | 0.0253 | 0.028 | 0.035 | 0.0536
in ethylene glycol | 0.000907 | 0.000983 | 0.00103 | 0.00118 | 0.00128 | 0.00166 | 0.0018 | 0.00202 | 0.00248 | 0.0025
in isobutanol | 0.0157 | 0.0177 | 0.0185 | 0.0197 | 0.0225 | 0.0257 | 0.0261 | 0.0365 | 0.0425 | 0.0566
in isobutyl acetate | 0.00727 | 0.0102 | 0.0116 | 0.0136 | 0.0159 | 0.0199 | 0.0219 | 0.0263 | 0.0335 | 0.0423
in isopropanol | 0.0112 | 0.0122 | 0.0141 | 0.0157 | 0.0189 | 0.0248 | 0.0268 | 0.0326 | 0.038 | 0.047
in methyl acetate | 0.0084 | 0.00938 | 0.0116 | 0.0137 | 0.0151 | 0.0184 | 0.0214 | 0.0236 | 0.0318 | 0.0383
in n-butanol | 0.015 | 0.0171 | 0.0196 | 0.0221 | 0.0249 | 0.0309 | 0.0355 | 0.0406 | 0.0475 | 0.0623
in n-butyl acetate | 0.0118 | 0.0131 | 0.0153 | 0.0182 | 0.0204 | 0.0247 | 0.0291 | 0.0332 | 0.0364 | 0.0527
in n-octanol | 0.0159 | 0.0177 | 0.02 | 0.0225 | 0.0238 | 0.0255 | 0.0287 | 0.0369 | 0.044 | 0.0511
in n-propanol | 0.0143 | 0.0163 | 0.0196 | 0.0218 | 0.0231 | 0.0263 | 0.0273 | 0.0332 | 0.0441 | 0.0497
in n-propyl acetate | 0.0114 | 0.0123 | 0.0147 | 0.0169 | 0.0269 | 0.0277 | 0.0362 | 0.037 | 0.052 | 0.0556
in propylene glycol | 0.00332 | 0.00359 | 0.00423 | 0.00483 | 0.00737 | 0.00749 | 0.00874 | 0.0101 | 0.0139 | 0.0174
in water | 2.2e-06 and 3.2e-06 | 2.3e-06 and 3.6e-06 | 2.4e-06 | 2.6e-06 | 2.7e-06 | 2.8e-06 | 3e-06 | – | – | 4.2e-06
